tested on: T. cruzi cysteine proteases (trypomastigote protein extract); assay: Proteinase activity in solution (Z-FR-AMC); type: biochemical, Trypanosoma cruzi; conditions: up to 100 µM, Z-FR-AMC substrate
Method: Trypomastigote protein extracts (Dm28c-Luc; 10^8 parasites/mL) were obtained as previously described. The cysteine protease activity of the total protein extracts (5 µg) was measured using the reaction buffer (CH3COONa 10 mM, pH 5.0 containing 1 mM DTT), in the presence of the fluorogenic peptide substrate […], CBZ-L-Phenylalanyl-l-Arginine amide (Z -FR-AMC), and serial dilutions of pyrazole-thiazolines derivatives (100–6.25 µM). The samples were incubated for 45 min at room temperature. The variation in arbitrary fluorescence units (AFU), corresponding to the enzymatic cleavage of the fluorogenic substrate, was monitored in a SpectraMax M2e reader (Molecular Devices, Sunnyvale, CA, USA) for 1 h, with excitation values at 370 nm and emission values at 460 nm. Extracts incubated with 0.5% DMSO or with cysteine protease inhibitor E-64 were used as […]. […] The inhibitory activity was expressed as percentage inhibition.

Row | SMILES | maximum inhibition of cysteine protease activity [%]
1 | Brc1ccc(-n2cc(C3=NCCS3)cn2)cc1 [Compound 2i, 2-(1-(4-bromophenyl)-1H-pyrazol-4-yl)-4,5-dihydrothiazole] | ≤ 10

tested on: not listed separately; assay: Cytotoxicity in vitro assay (CellTiter-Glo); type: cell-based; conditions: African green monkey, Vero cells, mean ± SD
Method: Vero cells, obtained from the Rio de Janeiro Cell Bank (BCRJ code 0245), were dissociated with trypsin–EDTA solution (0.025%), and maintained in RPMI 1640 medium supplemented with 10% fetal bovine serum (FBS) at 37 °C in a humidified atmosphere of 5% CO2.
The compound toxicity was evaluated in Vero cell cultures. Briefly, Vero cells were seeded in 96-well white culture plates at a density of 1.5 × 10^4 cells/well for 24 h at 37 °C and 5% CO2. Thereafter, the cell monolayers were washed with phosphate-buffered saline (PBS) and 200 μL of fresh medium with a serial dilution of the pyrazole-thiazoline derivatives and Bz (1.9–500 µM) added. The cell viability was determined by luminescent assay using the CellTiter-Glo Kit (Promega Corporation, Madison, WI, USA) based on the ATP level. After 72 h of treatment, 20 μL of CellTiter-Glo solution was added per well, and cultures were kept for 2 min under agitation. The luminescent signal was read on the GloMax reader (Promega Corporation, Madison, WI, USA). The concentration of compounds that reduced 50% of cell viability (CC50) was calculated by linear regression. At least three independent assays were performed in duplicate.

Row | SMILES | CC50 at 72 h [µM]
2 | O=C(Cn1ccnc1[N+](=O)[O-])NCc1ccccc1 [Bz, benznidazole, reference compound] | > 500
3 | Clc1cccc(-n2cc(C3=NCCS3)cn2)c1 [Compound 2b, 2-(1-(3-chlorophenyl)-1H-pyrazol-4-yl)-4,5-dihydrothiazole] | 78.3 ± 7.7

tested on: not given; assay: not given; conditions: not given

Row | SMILES | melting point [°C]
4 | Clc1cccc(-n2cc(C3=NCCS3)cn2)c1 [Compound 2b, 2-(1-(3-chlorophenyl)-1H-pyrazol-4-yl)-4,5-dihydrothiazole] | 88 to 90

tested on: T. cruzi (Dm28c-Luc)-infected Vero cell spheroids; assay: 3D culture model: T. cruzi-infected Vero cell spheroids; type: cell-based, Trypanosoma cruzi; conditions: 100 μM
Method: Tridimensional Vero cell cultures were obtained as previously described. Briefly, the isolated cells (2 × 10^4/well) were cultured in 96-well U-bottom plates previously coated with 1% agarose. The spheroids were kept for 5 days at 37 °C in RPMI 1640 medium supplemented with 10% FBS for complete three-dimensional organization. Both 2D and 3D culture models were used for trypanocidal activity assays.
Vero cell spheroids were infected for 24 h with 2 × 10^5 trypomastigotes (Dm28c-Luc). […] Parasite load was assessed by the luminescence reaction after adding the luciferase substrate (luciferin 300 µg/mL). In addition, fluorescence microscopy images of untreated and treated T. cruzi-infected spheroids were acquired after fixing the cultures with 4% paraformaldehyde in PBS and 4′,6-diamidino-2-phenylindole (DAPI) staining, a DNA dye. The samples were observed under the Zeiss Axio Imager M2 fluorescence microscope (Carl Zeiss, Baden-Württemberg, Germany).

Row | SMILES | DAPI staining fluorescence microscopy of infected microtissue
5 | Brc1ccc(-n2cc(C3=NCCS3)cn2)cc1 [Compound 2i, 2-(1-(4-bromophenyl)-1H-pyrazol-4-yl)-4,5-dihydrothiazole] | reduction in parasite load
6 | O=C(Cn1ccnc1[N+](=O)[O-])NCc1ccccc1 [Bz, benznidazole, reference compound] | drastic reduction in the infection profile

same assay, conditions: 72 h, concentration higher than IC90 (100 μM in Figure 6 legend); untreated ALU = 166,678 ± 22,824

Row | SMILES | parasite load, arbitrary luminescence unit (ALU)
7 | Brc1ccc(-n2cc(C3=NCCS3)cn2)cc1 [Compound 2i, 2-(1-(4-bromophenyl)-1H-pyrazol-4-yl)-4,5-dihydrothiazole] | 25,788 ± 2776 ALU
8 | O=C(Cn1ccnc1[N+](=O)[O-])NCc1ccccc1 [Bz, benznidazole, reference compound] | 20,024 ± 2796 ALU

tested on: T. cruzi Dm28c-Luc in Vero cell cultures; assay: Reversibility (washout) assay; type: cell-based, Trypanosoma cruzi; conditions: 100 µM, 72 h treatment then 72 h drug-free
Method: Then, the cultures were washed with PBS, and maintained for another 72 h at 37 °C in a drug-free medium. Trypomastigotes released in the culture supernatant were detected by transferring the culture medium to 96-well plates, followed by luciferin (300 µg/mL) addition. Viable intracellular amastigotes were also accessed by adding luciferin solution to the cell monolayers.

Row | SMILES | parasite clearance in supernatant and cell monolayers after washout
9 | O=C(Cn1ccnc1[N+](=O)[O-])NCc1ccccc1 [Bz, benznidazole, reference compound] | sustained the parasite clearance

same assay, conditions: Trypanosoma cruzi, Vero; 100 µM, 72 h treatment then 72 h drug-free; read-out: inhibition of cell monolayer infection (intracellular amastigotes) after washout

Row | SMILES | inhibition at 100 µM [%]
10 | Brc1ccc(-n2cc(C3=NCCS3)cn2)cc1 [Compound 2i, 2-(1-(4-bromophenyl)-1H-pyrazol-4-yl)-4,5-dihydrothiazole] | 89

tested on: T. cruzi (strain Silvio X10/7); assay: not given; design: method as in PMID 30001347; conditions: 16 days treatment of infected Vero cell monolayers; cited from earlier work

Row | SMILES | parasite relapse / clearance after prolonged treatment
11 | O=C(Cn1ccnc1[N+](=O)[O-])NCc1ccccc1 [Bz, benznidazole, reference compound] | prevention of spontaneous parasite relapse for up to 60 days

tested on: T. cruzi (Dm28c-Luc) trypomastigotes; assay: microbe, parasite or virus in culture; type: cell-based, Trypanosoma cruzi; conditions: Dm28c-Luc, 24 h, mean ± SD; read-out: Trypanocidal Activity Trypomastigotes IC50
Method: The screening assays were performed with T. cruzi clone Dm28c (TcI) genetically modified to express luciferase gene (Dm28c-Luc), kindly provided by Dr. Cristina Henriques. Trypomastigotes were isolated from T. cruzi-infected Vero cell monolayers (10:1 parasites/host cell ratio). On the 4th day post-infection (dpi), free trypomastigotes in the culture supernatant were harvested, and the number of parasites/mL was quantified in a Neubauer chamber.
The trypanocidal activity of the pyrazole-thiazoline derivatives was evaluated against trypomastigote and intracellular amastigote forms of T. cruzi (Dm28c-Luc). Tissue-derived trypomastigotes (1 × 10^6 parasites/well) were incubated with pyrazole-thiazoline derivatives and Bz in different concentrations (0.41–100 µM) for 24 h at 37 °C in a humidified atmosphere and 5% CO2. The parasite viability was determined by the addition of luciferin (300 µg/mL), followed by luminescence detection on the GloMax microplate reader (Promega Corporation, Madison, WI, USA).
(§1) After 72 h of treatment, luciferin (300 µg/mL) was added to the culture, and the viability of the parasites was assessed by reading the luminescent signal on the GloMax reader (Promega Corporation, Madison, WI, USA). Controls were also performed in non-toxic concentrations of DMSO (≤ 1%). The concentration that reduces the number of viable parasites by 50% (IC50) or 90% (IC90) was calculated by linear regression. The selectivity index (SI) was calculated as CC50/IC50 for each parasite form.

Row | SMILES | IC50 [µM]
12 | Brc1ccc(-n2cc(C3=NCCS3)cn2)cc1 [Compound 2i, 2-(1-(4-bromophenyl)-1H-pyrazol-4-yl)-4,5-dihydrothiazole] | 2.1 ± 0.9

same assay, conditions: Trypanosoma cruzi, 24 h, Dm28c-Luc, 24 h, mean ± SD; read-out: Trypanocidal Activity Trypomastigotes IC50

Row | SMILES | IC50 [µM]
13 | Brc1ccc(-n2cc(C3=NCCS3)cn2)cc1 [Compound 2i, 2-(1-(4-bromophenyl)-1H-pyrazol-4-yl)-4,5-dihydrothiazole] | ≤ 2.1
14 | Clc1cccc(-n2cc(C3=NCCS3)cn2)c1 [Compound 2b, 2-(1-(3-chlorophenyl)-1H-pyrazol-4-yl)-4,5-dihydrothiazole] | 0.8 ± 0.3

same assay, conditions: Trypanosoma cruzi; Dm28c-Luc, 24 h, mean ± SD; read-out: Trypanocidal Activity Trypomastigotes IC50

Row | SMILES | IC50 [µM]
15 | O=C(Cn1ccnc1[N+](=O)[O-])NCc1ccccc1 [Bz, benznidazole, reference compound] | 19.6 ± 2.3

same assay, conditions: Trypanosoma cruzi; Dm28c-Luc, 24 h, mean ± SD; read-out: Trypanocidal Activity Trypomastigotes IC90

Row | SMILES | IC90 [µM]
16 | Brc1ccc(-n2cc(C3=NCCS3)cn2)cc1 [Compound 2i, 2-(1-(4-bromophenyl)-1H-pyrazol-4-yl)-4,5-dihydrothiazole] | 13.3 ± 2.8
17 | O=C(Cn1ccnc1[N+](=O)[O-])NCc1ccccc1 [Bz, benznidazole, reference compound] | 95.9 ± 4.7
18 | Clc1cccc(-n2cc(C3=NCCS3)cn2)c1 [Compound 2b, 2-(1-(3-chlorophenyl)-1H-pyrazol-4-yl)-4,5-dihydrothiazole] | 8.8 ± 1.3

same assay, conditions: selectivity index vs Vero cells

Row | SMILES | Trypomastigotes SI (CC50 of Vero cells/IC50)
19 | O=C(Cn1ccnc1[N+](=O)[O-])NCc1ccccc1 [Bz, benznidazole, reference compound] | >18.9
20 | Clc1cccc(-n2cc(C3=NCCS3)cn2)c1 [Compound 2b, 2-(1-(3-chlorophenyl)-1H-pyrazol-4-yl)-4,5-dihydrothiazole] | 100.2

tested on: T. cruzi (Dm28c-Luc) intracellular amastigotes; assay: Trypanocidal activity against intracellular amastigotes in infected Vero cell monolayers; type: cell-based, Trypanosoma cruzi; conditions: Dm28c-Luc in Vero cells, 72 h, mean ± SD; read-out: Trypanocidal Activity Intracellular Amastigotes IC50
Method: The susceptibility of intracellular amastigotes to pyrazole-thiazoline derivatives (series 1 and 2) was evaluated using 24 h T. cruzi-infected Vero cell monolayers (10:1 parasite/host cell ratio). Then, the cultures were washed with PBS to remove non-internalized parasites, and 200 μL of fresh medium with a serial dilution of pyrazole-thiazoline derivatives and Bz (0.41–100 µM) was added for 72 h at 37 °C.
as §1

Row | SMILES | IC50 [µM]
21 | Brc1ccc(-n2cc(C3=NCCS3)cn2)cc1 [Compound 2i, 2-(1-(4-bromophenyl)-1H-pyrazol-4-yl)-4,5-dihydrothiazole] | 6.8 ± 1.1
22 | Clc1cccc(-n2cc(C3=NCCS3)cn2)c1 [Compound 2b, 2-(1-(3-chlorophenyl)-1H-pyrazol-4-yl)-4,5-dihydrothiazole] | 8.3 ± 1.9

same assay, conditions: Trypanosoma cruzi, Vero, 72 h, Dm28c-Luc in Vero cells, 72 h, mean ± SD; read-out: Trypanocidal Activity Intracellular Amastigotes IC50

Row | SMILES | IC50 [µM]
23 | Brc1ccc(-n2cc(C3=NCCS3)cn2)cc1 [Compound 2i, 2-(1-(4-bromophenyl)-1H-pyrazol-4-yl)-4,5-dihydrothiazole] | < 10
24 | Clc1cccc(-n2cc(C3=NCCS3)cn2)c1 [Compound 2b, 2-(1-(3-chlorophenyl)-1H-pyrazol-4-yl)-4,5-dihydrothiazole] | < 10

same assay, conditions: Trypanosoma cruzi, Vero, 72 h, read-out: Trypanocidal Activity Intracellular Amastigotes IC50

Row | SMILES | IC50 [µM]
25 | O=C(Cn1ccnc1[N+](=O)[O-])NCc1ccccc1 [Bz, benznidazole, reference compound] | 3.3 ± 1.1

same assay, conditions: Trypanosoma cruzi, Vero, 72 h, read-out: Trypanocidal Activity Intracellular Amastigotes IC90

Row | SMILES | IC90 [µM]
26 | O=C(Cn1ccnc1[N+](=O)[O-])NCc1ccccc1 [Bz, benznidazole, reference compound] | 13.7 ± 4.2

same assay, conditions: Trypanosoma cruzi, Vero, pIC50 = −log IC50, Dm28c-Luc clone; read-out: Intracellular Amastigotes pIC50 (converted)

Row | SMILES | IC50 [µM]
27 | Brc1ccc(-n2cc(C3=NCCS3)cn2)cc1 [Compound 2i, 2-(1-(4-bromophenyl)-1H-pyrazol-4-yl)-4,5-dihydrothiazole] | < 6.92
28 | Clc1cccc(-n2cc(C3=NCCS3)cn2)c1 [Compound 2b, 2-(1-(3-chlorophenyl)-1H-pyrazol-4-yl)-4,5-dihydrothiazole] | ~10

same assay, conditions: Trypanosoma cruzi, Vero, read-out: Intracellular Amastigotes pIC50 (converted)

Row | SMILES | IC50 [µM]
29 | O=C(Cn1ccnc1[N+](=O)[O-])NCc1ccccc1 [Bz, benznidazole, reference compound] | 3.31

same assay, conditions: Trypanosoma cruzi; Dm28c-Luc in Vero cells, 72 h, mean ± SD; read-out: Trypanocidal Activity Intracellular Amastigotes IC90

Row | SMILES | IC90 [µM]
30 | Brc1ccc(-n2cc(C3=NCCS3)cn2)cc1 [Compound 2i, 2-(1-(4-bromophenyl)-1H-pyrazol-4-yl)-4,5-dihydrothiazole] | 27.1 ± 3.6
31 | Clc1cccc(-n2cc(C3=NCCS3)cn2)c1 [Compound 2b, 2-(1-(3-chlorophenyl)-1H-pyrazol-4-yl)-4,5-dihydrothiazole] | 31.9 ± 1.3

same assay, conditions: selectivity index vs Vero cells

Row | SMILES | Intracellular Amastigotes SI (CC50 of Vero cells/IC50)
32 | Brc1ccc(-n2cc(C3=NCCS3)cn2)cc1 [Compound 2i, 2-(1-(4-bromophenyl)-1H-pyrazol-4-yl)-4,5-dihydrothiazole] | 31.8
33 | Clc1cccc(-n2cc(C3=NCCS3)cn2)c1 [Compound 2b, 2-(1-(3-chlorophenyl)-1H-pyrazol-4-yl)-4,5-dihydrothiazole] | 9.4

Reference: PMC9146228, “Bioactivity of Novel Pyrazole-Thiazolines Scaffolds against Trypanosoma cruzi: Computational Approaches and 3D Spheroid Model on Drug Discovery for Chagas Disease” (Pharmaceutics, 2022)
